Laboratory results taken from PubChem BioAssay AID1259407 (Chemical Carcinogenesis Research Information System (CCRIS), 2018).
Active and inactive are the calls of the source. How the calls were made is not given here.

Test system: CCRIS mutagenicity, Ames/micronucleus/aberration tests
Experiment: CCRIS mutagenicity studies
[1] = Test System: AMES SALMONELLA TYPHIMURIUM, Strain/Indicator: TA98, Metabolic Activation: NONE, Method: STANDARD PLATE
[2] = Test System: AMES SALMONELLA TYPHIMURIUM, Strain/Indicator: TA100, Metabolic Activation: NONE, Method: STANDARD PLATE
[3] = Test System: AMES SALMONELLA TYPHIMURIUM, Strain/Indicator: TA98, Metabolic Activation: NONE, Method: PREINCUBATION
[4] = Test System: AMES SALMONELLA TYPHIMURIUM, Strain/Indicator: TA98, Metabolic Activation: RAT, LIVER, S-9, AROCLOR 1254, Method: STANDARD PLATE
[5] = Test System: AMES SALMONELLA TYPHIMURIUM, Strain/Indicator: TA100, Metabolic Activation: RAT, LIVER, S-9, AROCLOR 1254, Method: STANDARD PLATE
[6] = Test System: AMES SALMONELLA TYPHIMURIUM, Strain/Indicator: TA100, Metabolic Activation: NONE, Method: PREINCUBATION
[7] = Test System: AMES SALMONELLA TYPHIMURIUM, Strain/Indicator: TA1535, Metabolic Activation: NONE, Method: PREINCUBATION

ClCc1ccc2c(c1)-c1cccc3cccc-2c13
mutagenic call [1]: active; positive | mutagenic call [2]: active; positive

O=C(O)[C@H]1OC(Oc2cccc3c2cc2ccc4cccc5ccc3c2c45)[C@H](O)[C@@H](O)[C@@H]1O (stereo partly drawn)
mutagenic call [3]: inactive; negative | mutagenic call (Test System: AMES SALMONELLA TYPHIMURIUM, Strain/Indicator: TA98, Metabolic Activation: RAT, LUNG, S-9, Method: PREINCUBATION): inactive; negative

Cc1cc(O)cc2oc(=O)c3c(O)cc(O)cc3c12
mutagenic call [1]: inactive; negative | mutagenic call (Test System: AMES SALMONELLA TYPHIMURIUM, Strain/Indicator: TA98, Metabolic Activation: RAT LIVER S-9, AROCLOR 1254, Method: STANDARD PLATE): inactive; negative | mutagenic call [4]: inactive; negative | mutagenic call [2]: inactive; negative | mutagenic call (Test System: AMES SALMONELLA TYPHIMURIUM, Strain/Indicator: TA100, Metabolic Activation: RAT LIVER S-9, AROCLOR 1254, Method: STANDARD PLATE): inactive; negative | mutagenic call [5]: inactive; negative | mutagenic call (Test System: Ames Salmonella typhimurium, Strain/Indicator: TA97, Metabolic Activation: None, Method: Standard plate): inactive; negative. nitrosation did not increase mutagenic activity | mutagenic call (Test System: Ames Salmonella typhimurium, Strain/Indicator: TA97, Metabolic Activation: Rat, Liver, S-9, Aroclor 1254 (10%), Method: Standard plate): inactive; negative. nitrosation did not increase mutagenic activity | mutagenic call (Test System: Ames Salmonella typhimurium, Strain/Indicator: TA102, Metabolic Activation: None, Method: Standard plate): active; positive. nitrosation led to mutagenic product | mutagenic call (Test System: Ames Salmonella typhimurium, Strain/Indicator: TA102, Metabolic Activation: Rat, Liver, S-9, Aroclor 1254 (10%), Method: Standard plate): active; positive. nitrosation led to mutagenic product | mutagenic call (Test System: Ames Salmonella typhimurium, Strain/Indicator: TA104, Metabolic Activation: None, Method: Standard plate): inactive; negative. nitrosation did not increase mutagenic activity | mutagenic call (Test System: Ames Salmonella typhimurium, Strain/Indicator: TA104, Metabolic Activation: Rat, Liver, S-9, Aroclor 1254 (10%), Method: Standard plate): inactive; negative. nitrosation did not increase mutagenic activity

CC(C)c1cc(N)c([N+](=O)[O-])cc1N
mutagenic call [1]: inactive; negative | mutagenic call [4]: active; positive | mutagenic call [2]: inactive; negative | mutagenic call [5]: inactive; negative | mutagenic call (Test System: AMES SALMONELLA TYPHIMURIUM, Strain/Indicator: TA1535, Metabolic Activation: NONE, Method: STANDARD PLATE): inactive; negative | mutagenic call (Test System: AMES SALMONELLA TYPHIMURIUM, Strain/Indicator: TA1535, Metabolic Activation: RAT, LIVER, S-9, AROCLOR 1254, Method: STANDARD PLATE): inactive; negative | mutagenic call (Test System: AMES SALMONELLA TYPHIMURIUM, Strain/Indicator: TA1537, Metabolic Activation: NONE, Method: STANDARD PLATE): inactive; negative | mutagenic call (Test System: AMES SALMONELLA TYPHIMURIUM, Strain/Indicator: TA1537, Metabolic Activation: RAT, LIVER, S-9, AROCLOR 1254, Method: STANDARD PLATE): inactive; negative | mutagenic call (Test System: AMES SALMONELLA TYPHIMURIUM, Strain/Indicator: TA1538, Metabolic Activation: NONE, Method: STANDARD PLATE): inactive; negative | mutagenic call (Test System: AMES SALMONELLA TYPHIMURIUM, Strain/Indicator: TA1538, Metabolic Activation: RAT, LIVER, S-9, AROCLOR 1254, Method: STANDARD PLATE): active; positive

COC(=O)c1ccc(C=O)cc1
mutagenic call (Test System: AMES SALMONELLA TYPHIMURIUM, Strain/Indicator: TA97, Metabolic Activation: HAMSTER, LIVER, S-9, AROCLOR 1254 (10 OR 30%), Method: PREINCUBATION): inactive; negative | mutagenic call (Test System: AMES SALMONELLA TYPHIMURIUM, Strain/Indicator: TA97, Metabolic Activation: NONE, Method: PREINCUBATION): inactive; negative | mutagenic call (Test System: AMES SALMONELLA TYPHIMURIUM, Strain/Indicator: TA97, Metabolic Activation: RAT, LIVER, S-9, AROCLOR 1254 (10 OR 30%), Method: PREINCUBATION): inactive; negative | mutagenic call (Test System: AMES SALMONELLA TYPHIMURIUM, Strain/Indicator: TA98, Metabolic Activation: HAMSTER, LIVER, S-9, AROCLOR 1254 (10 OR 30%), Method: PREINCUBATION): inactive; negative | mutagenic call [3]: inactive; negative | mutagenic call (Test System: AMES SALMONELLA TYPHIMURIUM, Strain/Indicator: TA98, Metabolic Activation: RAT, LIVER, S-9, AROCLOR 1254 (10 OR 30%), Method: PREINCUBATION): inactive; negative | mutagenic call (Test System: AMES SALMONELLA TYPHIMURIUM, Strain/Indicator: TA100, Metabolic Activation: HAMSTER, LIVER, S-9, AROCLOR 1254 (10 OR 30%), Method: PREINCUBATION): inactive; negative | mutagenic call [6]: inactive; negative | mutagenic call (Test System: AMES SALMONELLA TYPHIMURIUM, Strain/Indicator: TA100, Metabolic Activation: RAT, LIVER, S-9, AROCLOR 1254 (10 OR 30%), Method: PREINCUBATION): inactive; negative | mutagenic call (Test System: AMES SALMONELLA TYPHIMURIUM, Strain/Indicator: TA1535, Metabolic Activation: HAMSTER, LIVER, S-9, AROCLOR 1254 (10 OR 30%), Method: PREINCUBATION): inactive; negative | mutagenic call [7]: inactive; negative | mutagenic call (Test System: AMES SALMONELLA TYPHIMURIUM, Strain/Indicator: TA1535, Metabolic Activation: RAT, LIVER, S-9, AROCLOR 1254 (10 OR 30%), Method: PREINCUBATION): inactive; negative

O=C=Nc1ccc(Cc2ccc(N=C=O)cc2)cc1
mutagenic call (Test System: AMES SALMONELLA TYPHIMURIUM, Strain/Indicator: TA98, Metabolic Activation: HAMSTER, LIVER, S-9, AROCLOR 1254 (10%), Method: PREINCUBATION): inactive; negative | mutagenic call [3]: inactive; negative | mutagenic call (Test System: AMES SALMONELLA TYPHIMURIUM, Strain/Indicator: TA98, Metabolic Activation: RAT, LIVER, S-9, AROCLOR 1254 (10%), Method: PREINCUBATION): inactive; negative | mutagenic call (Test System: AMES SALMONELLA TYPHIMURIUM, Strain/Indicator: TA98, Metabolic Activation: RAT, LIVER, S-9, KC 500, Method: PREINCUBATION): inactive; negative | mutagenic call (Test System: AMES SALMONELLA TYPHIMURIUM, Strain/Indicator: TA100, Metabolic Activation: HAMSTER, LIVER, S-9, AROCLOR 1254 (10%), Method: PREINCUBATION): inactive; negative | mutagenic call [6]: inactive; negative | mutagenic call (Test System: AMES SALMONELLA TYPHIMURIUM, Strain/Indicator: TA100, Metabolic Activation: RAT, LIVER, S-9, AROCLOR 1254 (10%), Method: PREINCUBATION): inactive; negative | mutagenic call (Test System: AMES SALMONELLA TYPHIMURIUM, Strain/Indicator: TA100, Metabolic Activation: RAT, LIVER, S-9, KC 500, Method: PREINCUBATION): active; positive | mutagenic call (Test System: AMES SALMONELLA TYPHIMURIUM, Strain/Indicator: TA1535, Metabolic Activation: HAMSTER, LIVER, S-9, AROCLOR 1254 (10%), Method: PREINCUBATION): inactive; negative | mutagenic call [7]: inactive; negative | mutagenic call (Test System: AMES SALMONELLA TYPHIMURIUM, Strain/Indicator: TA1535, Metabolic Activation: RAT, LIVER, S-9, AROCLOR 1254 (10%), Method: PREINCUBATION): inactive; negative | mutagenic call (Test System: AMES SALMONELLA TYPHIMURIUM, Strain/Indicator: TA1535, Metabolic Activation: RAT, LIVER, S-9, KC 500, Method: PREINCUBATION): inactive; negative | mutagenic call (Test System: AMES SALMONELLA TYPHIMURIUM, Strain/Indicator: TA1537, Metabolic Activation: HAMSTER, LIVER, S-9, AROCLOR 1254 (10%), Method: PREINCUBATION): inactive; negative | mutagenic call (Test System: AMES SALMONELLA TYPHIMURIUM, Strain/Indicator: TA1537, Metabolic Activation: NONE, Method: PREINCUBATION): inactive; negative | mutagenic call (Test System: AMES SALMONELLA TYPHIMURIUM, Strain/Indicator: TA1537, Metabolic Activation: RAT, LIVER, S-9, AROCLOR 1254 (10%), Method: PREINCUBATION): inactive; negative | mutagenic call (Test System: AMES SALMONELLA TYPHIMURIUM, Strain/Indicator: TA1537, Metabolic Activation: RAT, LIVER, S-9, KC 500, Method: PREINCUBATION): inactive; negative | mutagenic call (Test System: AMES SALMONELLA TYPHIMURIUM, Strain/Indicator: TA1538, Metabolic Activation: NONE, Method: PREINCUBATION): inactive; negative | mutagenic call (Test System: AMES SALMONELLA TYPHIMURIUM, Strain/Indicator: TA1538, Metabolic Activation: RAT, LIVER, S-9, KC 500, Method: PREINCUBATION): inactive; negative | mutagenic call (Test System: E. COLI, Strain/Indicator: WP2 UVRA, Metabolic Activation: NONE, Method: PREINCUBATION): inactive; negative | mutagenic call (Test System: E. COLI, Strain/Indicator: WP2 UVRA, Metabolic Activation: RAT, LIVER, S-9, KC 500, Method: PREINCUBATION): inactive; negative
